Test system: emerging SPEM cells at the bases of fundic glands
Assay: Gene microarray analysis of laser-capture microdissected chief cells and emerging SPEM cells (Affymetrix Mouse 430 2.0)
Format: in vivo, gastrin-deficient mice
Experimental: See Nomura, S., Yamaguchi, H., Wang, T. C., Lee, J. R., and Goldenring, J. R. 2004. Alterations in gastric mucosal lineages induced by acute oxyntic atrophy in wild type and gastrin deficient mice. Amer. J. Physiol. 288:G362-G375. […] To examine this hypothesis more directly, chief cells were microdissected from the very bases of untreated gastrin knockout mice as well as SPEM cells at the base of fundic glands after 1 and 3 days of treatment with DMP-777. Total RNA was prepared from 10,000 cells isolated from 4 different mice in each group. For each of the 12 samples, linear amplification was performed and Affymetrix Mouse 2.0 gene microarrays were probed. […] Second, 30 genes were identified as being involved in G1-S interface transition, including 5 MCM proteins, BRCA1, RIS2, RAD51, TACC3 and ligase1. Immunocytochemistry was used to confirm the upregulation of MCM3 as well as TACC3 in SPEM cells located at the base of fundic glands in mice treated for 1 or 3 days with DMP-777. All of these changes are consistent with alterations moving towards a proliferative phenotype. […] See Nomura, S., Yamaguchi, H., Wang, T. C., Lee, J. R., and Goldenring, J. R. 2004. Alterations in gastric mucosal lineages induced by acute oxyntic atrophy in wild type and gastrin deficient mice. Amer. J. Physiol. 288:G362-G375. Thus the up-regulation of proteins involved in the G1/S interface is also consistent with transdifferentiation of chief cells into SPEM, since such changes would require a global transcriptome, alterations that would require unwinding of DNA and changes in gene activation including alteration in DNA methylation.
Gastrin-deficient mice were constructed by targeted disruption of the gastrin gene and were maintained on a C57BL/6 background (Nomura S, Yamaguchi H, Wang T C, Lee J R, Goldenring J R. Alterations in gastric mucosal lineages induced by acute oxyntic atrophy in wild type and gastrin deficient mice. Amer.J.Physiol. 2004; In Press). Mice were treated for 1 or 3 days with oral gavage administration of DMP-777 (a gift of DuPont Pharmaceuticals), formulated in 0.5% methylcellulose (administered orally as a gavage once daily at 350 mg/kg/day). Untreated mice were utilized as controls. Mice were sacrificed and their stomachs were excised and opened along the greater curvature and processed for frozen sections for laser capture microdissection. From the untreated Gastrin-deficient mice, chief cells were microdissected from the bases of gastric glands. The emerging SPEM cells were microdissected from the bases of fundic glands of DMP-777-treated Gastrin-deficient mice after 1 or 3 days of oral drug administration. Cell collections (10,000 cells) and extractions of total RNA were performed as previously described (Nomura S, Baxter S, Yamaguchi T, Leys C, Vartapetian A B, Fox J G, Lee J R, Wang T C, Goldenring J R. Relationship of spasmolytic polypeptide expressing metaplasia (SPEM) to pre-neoplasia in H. felis-infected mice. Gastroenterology 2004; 127:582-594).
Total RNA from microdissected cells were reverse transcribed and amplified through two rounds of linear amplification using a Nugen Ovation kit to amplify and label 10-20 ng of RNA. The resulting single-strand cDNA product was purified by binding to and elution from a Qiagen QIAQUICK® column. The cDNA product was then quantitated and 2.2 μg of the fragmented, labeled product was hybridized to Affymetrix Mouse 430 2.0 microarrays overnight, with staining and scanning performed the next day. Gene expression was analyzed among microdissected cells from 4 untreated gastrin-deficient mice 4 mice treated with DMP-777 for one day and 4 mice treated with DMP-777 for three days. The raw gene expression data (.cel files) were converted to expression values using the Affy function in R (see the Bioconductor website). […]

[1] = gastrin-deficient mice, 350 mg/kg/day oral, 1 day, microdissected SPEM cells vs untreated chief cells
[2] = gastrin-deficient mice, 350 mg/kg/day oral, 1 day, microdissected SPEM cells vs untreated chief cells, first line for this gene
[3] = gastrin-deficient mice, 350 mg/kg/day oral, 1 day, microdissected SPEM cells vs untreated chief cells, second line for this gene
[4] = gastrin-deficient mice, 350 mg/kg/day oral, 3 days, microdissected SPEM cells vs untreated chief cells
[5] = gastrin-deficient mice, 350 mg/kg/day oral, 3 days, microdissected SPEM cells vs untreated chief cells, first line for this gene
[6] = gastrin-deficient mice, 350 mg/kg/day oral, 3 days, microdissected SPEM cells vs untreated chief cells, second line for this gene

Which results are given for `CCC[C@@H](NC(=O)N1C(=O)C(CC)(CC)[C@@H]1Oc1ccc(C(=O)N2CCN(C)CC2)cc1)c1ccc2c(c1)OCO2` [DMP-777]?
Top2a transcript, 1 DAY DMP-777 vs CONTROL [1]: 7.3; Trip13 transcript, 1 DAY DMP-777 vs CONTROL [1]: 10.3; Uhrf1 transcript, 1 DAY DMP-777 vs CONTROL [1]: 35.3; WDNM1 transcript, 1 DAY DMP-777 vs CONTROL [1]: 5.2; Wfdc2 transcript, 1 DAY DMP-777 vs CONTROL [1]: 8.9; Mcm5 * transcript, 1 DAY DMP-777 vs CONTROL [2]: 18.1; Mcm10 * transcript, 1 DAY DMP-777 vs CONTROL [2]: 12.2; Prc1 transcript, 1 DAY DMP-777 vs CONTROL [2]: 7.5; Rad51ap1 * transcript, 1 DAY DMP-777 vs CONTROL [2]: 12.9; Ris2* transcript, 1 DAY DMP-777 vs CONTROL [2]: 21.5; Mcm5 * transcript, 1 DAY DMP-777 vs CONTROL [3]: 13.9; Mcm10 * transcript, 1 DAY DMP-777 vs CONTROL [3]: 6.7; Prc1 transcript, 1 DAY DMP-777 vs CONTROL [3]: 7.0; Rad51ap1 * transcript, 1 DAY DMP-777 vs CONTROL [3]: 8.7; Ris2* transcript, 1 DAY DMP-777 vs CONTROL [3]: 7.3; 5ssca1 transcript, 3 DAYS DMP-777 vs CONTROL [4]: 12.3; Atf3 transcript, 3 DAYS DMP-777 vs CONTROL [4]: 10.1; Cdc2a transcript, 3 DAYS DMP-777 vs CONTROL [4]: 7.0; Cdca1 transcript, 3 DAYS DMP-777 vs CONTROL [4]: 8.1; Cdca5 transcript, 3 DAYS DMP-777 vs CONTROL [4]: 36.1; CdcaS transcript, 3 DAYS DMP-777 vs CONTROL [4]: 8.7; Cenph transcript, 3 DAYS DMP-777 vs CONTROL [4]: 10.7; Clspn transcript, 3 DAYS DMP-777 vs CONTROL [4]: 8.5; Crip1 transcript, 3 DAYS DMP-777 vs CONTROL [4]: 42.6; Dcc1 transcript, 3 DAYS DMP-777 vs CONTROL [4]: 10.0; Ereg transcript, 3 DAYS DMP-777 vs CONTROL [4]: 28.9; ExoscB transcript, 3 DAYS DMP-777 vs CONTROL [4]: 6.7; Fignl1 transcript, 3 DAYS DMP-777 vs CONTROL [4]: 6.6; Gadd45b transcript, 3 DAYS DMP-777 vs CONTROL [4]: 5.0; Il1m transcript, 3 DAYS DMP-777 vs CONTROL [4]: 18.5; Lgals3 transcript, 3 DAYS DMP-777 vs CONTROL [4]: 153.3; Lig1 transcript, 3 DAYS DMP-777 vs CONTROL [4]: 9.6; Mcm6 transcript, 3 DAYS DMP-777 vs CONTROL [4]: 36.4; Ncapg transcript, 3 DAYS DMP-777 vs CONTROL [4]: 3.2; Pole transcript, 3 DAYS DMP-777 vs CONTROL [4]: 11.3; Rad51 transcript, 3 DAYS DMP-777 vs CONTROL [4]: 10.5; Rad54b transcript, 3 DAYS DMP-777 vs CONTROL [4]: 6.6; Rfc3 transcript, 3 DAYS DMP-777 vs CONTROL [4]: 6.1; Rfc4 transcript, 3 DAYS DMP-777 vs CONTROL [4]: 8.4; Rrm1 transcript, 3 DAYS DMP-777 vs CONTROL [4]: 8.4; Tk1 transcript, 3 DAYS DMP-777 vs CONTROL [4]: 11.5; Top2a transcript, 3 DAYS DMP-777 vs CONTROL [4]: 6.4; Trip13 transcript, 3 DAYS DMP-777 vs CONTROL [4]: 8.6; Uhrf1 transcript, 3 DAYS DMP-777 vs CONTROL [4]: 8.8; WDNM1 transcript, 3 DAYS DMP-777 vs CONTROL [4]: 345.9; Wfdc2 transcript, 3 DAYS DMP-777 vs CONTROL [4]: 67.5; Mcm5 * transcript, 3 DAYS DMP-777 vs CONTROL [5]: 36.2; Mcm10 * transcript, 3 DAYS DMP-777 vs CONTROL [5]: 38.3; Prc1 transcript, 3 DAYS DMP-777 vs CONTROL [5]: 6.9; Rad51ap1 * transcript, 3 DAYS DMP-777 vs CONTROL [5]: 6.1; Ris2* transcript, 3 DAYS DMP-777 vs CONTROL [5]: 41.3; Mcm5 * transcript, 3 DAYS DMP-777 vs CONTROL [6]: 18.2; Mcm10 * transcript, 3 DAYS DMP-777 vs CONTROL [6]: 10.1; Prc1 transcript, 3 DAYS DMP-777 vs CONTROL [6]: 7.4; Rad51ap1 * transcript, 3 DAYS DMP-777 vs CONTROL [6]: 7.4; Ris2* transcript, 3 DAYS DMP-777 vs CONTROL [6]: 10.3; increase in the expression of the HE4 gene (gene microarray, DMP-777-treated gastrin knockout mice vs untreated): greater than 16 fold

Reference: US7811778B2, “Methods of screening for gastrointestinal cancer” (Vanderbilt University, priority 2006, dated 2010)
